In patent publication US6914053B2, “Adenosine A3 receptor agonists” (CV Therapeutics, Inc., priority 2002, dated 2005):

Assays:
A3 AdoRs = target: T1, A3 AdoRs (Homo sapiens, UniProt P0DMS8); test: Radioligand binding competition with 125I-AB-MECA on membranes of transfected cells; details: competition with 0.2 nM 125I-AB-MECA, membranes of HEK-A3 or CHO-A3, TEM buffer, 90 minutes
T1 construct: expressed in transfected cells; host or cells: HEK-293 or CHO cells (HEK-A3 or CHO-A3), membranes
T1 sequence (P0DMS8 1-318): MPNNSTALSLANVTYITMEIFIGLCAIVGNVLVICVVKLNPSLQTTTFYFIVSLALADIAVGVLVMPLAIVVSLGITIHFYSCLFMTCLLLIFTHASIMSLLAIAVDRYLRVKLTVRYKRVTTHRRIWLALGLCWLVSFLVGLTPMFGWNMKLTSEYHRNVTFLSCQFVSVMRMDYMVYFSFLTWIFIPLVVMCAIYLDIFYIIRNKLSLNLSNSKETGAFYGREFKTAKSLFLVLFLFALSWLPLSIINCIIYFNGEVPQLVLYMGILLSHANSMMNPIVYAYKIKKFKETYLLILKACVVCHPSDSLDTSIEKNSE
Method: Stable transfection of HEK-293 or CHO cells. The cDNAs for human A1, A2A, A2B or A3 AdoRs were prepared by RT-PCR from total RNA of human cells or tissues and sequenced on both strands. The expression vector containing each of these cDNAs and a second vector containing a neomycin or puromycin-resistance gene were introduced to HEK-293 or CHO cells by Lipofectin-Plus (Life Technology). Colonies were selected by growing transfected cells in the presence of neomycin or puromycin. Stably transfected cells were maintained in Dulbecco's modified Eagle's medium (DMEM) or F-12 medium with 10% fetal bovine serum, 100 μg/ml penicillin, 100 μg/ml streptomycin and appropriate concentrations of neomycin or puromycin. These stably transfected cells were referred to as HEK-“AdoR” or CHO-“AdoR” depending on the receptors that they express. For example, cells that were transfected with A3 AdoRs were referred to as HEK-A3 or CHO-A3.
Membrane preparation. Monolayers of transfected cells were washed with phosphate buffered saline (PBS) and harvested in a buffer containing 10 mM HEPES (pH 7.4), 10 mM EDTA and protease inhibitors. The cells were homogenized in polytron for 1 minute at setting 4 and centrifuged at 29000 g for 15 minutes at 4° C. The cell pellets were washed with a buffer containing 10 mM HEPES (pH7.4), 1 mM EDTA and protease inhibitors, and were resuspended in the same buffer supplemented with 10% sucrose. Frozen aliquots were kept at −80° C.
Radioligand binding. The affinities of compounds for A1, A2A, A2B or A3 AdoRs were determined in competition studies using radioligands such as ^3H—CPX (A1 antagonist), or ^3H-CCPA (A1 agonist), ^3H-ZM214385 (A2A antagonist) or ^3H-CGS21680 (A2A agonist), ^3H-ZM214385 (A2B antagonist) or ^125I-AB-MECA (A3 agonist) and membranes of corresponding transfected cells. For example, to determine the affinity for A3 AdoRs, the competition assays were started by mixing 0.2 nM ^125I-AB-MECA with various concentrations of test compounds and 25 ug membrane proteins of HEK-A3 or CHO-A3 in TEM buffer (50 mM Tris, 1 mM EDTA and 10 mM MgCl2) supplemented with 1 U/ml adenosine deaminase. The assays were incubated for 90 minutes, stopped by filtration onto GF/B filter plates using Packard Harvester and washed four times with ice-cold TM buffer (10 mM Tris, 1 mM MgCl2, pH 7.4). The amounts of radioligands that bound to the GF/B filter plates were determined by scintillation counting. Nonspecific binding was determined in the presence of 10 μM R—PIA or 1 μM IB-MECA. Bmax and KD values were calculated using GraphPad software.

Row | SMILES | Ki (A3 AdoRs) | melting point
1 | CONc1nc(C#Cc2ccc(F)cc2)nc2c1ncn2[C@@H]1O[C@H](CO)[C@@H](O)[C@H]1O [(4S,2R,3R,5R)-2-{2-[2-(4-fluorophenyl)ethynyl}-6-(methoxyamino)purin-9-yl}-5-(hydroxymethyl)oxolane-3,4-diol] | 0.422 nM | –
2 | CCCCC#Cc1nc(NOC)c2ncn([C@@H]3O[C@H](CO)[C@@H](O)[C@H]3O)c2n1 [(4S,2R,3R,5R)-2-{2-[2-hex-1-ynyl-6-methoxyamino)purin-9-yl}-5-(hydroxymethyl)oxolane-3,4-diol] | 0.681 nM | –
3 | CONc1nc(C#Cc2ccc(C)cc2)nc2c1ncn2[C@@H]1O[C@H](CO)[C@@H](O)[C@H]1O [(4S,2R,3R,5R)-5-(hydroxymethyl)-2-[6-(methoxyamino)-2-[(2-(4-methylphenyl)ethynyl]-purin-9-yl]oxolane-3,4-diol] | 0.331 nM | –
4 | CCCCCc1ccc(C#Cc2nc(NOC)c3ncn([C@@H]4O[C@H](CO)[C@@H](O)[C@H]4O)c3n2)cc1 [(4S,2R,3R,5R)-5-hydroxymethyl)-2-{6-(methoxyamino-2-[2-(4-pentylphenylethynyl)]purin-9-yl}oxolane-3,4-diol] | 0.388 nM | –
5 | CONc1nc(C#Cc2ccccc2)nc2c1ncn2[C@@H]1O[C@H](CO)[C@@H](O)[C@H]1O [Example 6A, (4S,2R,3R,5R)-5-(hydroxymethyl)-2-[6-(methoxyamino)-2-(2-phenylethynyl)purin-9-yl]oxolane-3,4-diol] | – | 175 to 177 °C
